Test results reported in ChEMBL document CHEMBL1201862, “PubChem BioAssay data set” (2004).
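A five-concentration, 48-hour dose response in 96-well plates underlies each endpoint, interpolated linearly between surrounding concentrations. GI50 is the concentration that inhibits growth by half.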 Active and inactive are the calls of the source. No stated cut-off is given here; in the data, active = GI50 up to about 1.1 µM and inactive = higher.

Legend:
Test in all cases: NCI-60 cell line screen, 48 h
HCT-116 = test system: HCT-116
M14 = test system: M14
SK-MEL-5 = test system: SK-MEL-5
COLO 205 = test system: COLO 205
K562 = test system: K562
HOP-62 = test system: HOP-62
MCF7 = test system: MCF7
NCI-H460 = test system: NCI-H460
U-251 = test system: U-251
BT-549 = test system: BT-549
OVCAR-8 = test system: OVCAR-8
NCI-H23 = test system: NCI-H23
LOX IMVI = test system: LOX IMVI
HCC 2998 = test system: HCC 2998
RPMI-8226 = test system: RPMI-8226
RXF 393 = test system: RXF 393
DU-145 = test system: DU-145
Hs-578T = test system: Hs-578T
UACC-62 = test system: UACC-62
NCI-H522 = test system: NCI-H522

| Structure (SMILES) | GI50 (HCT-116) | GI50 (M14) | GI50 (SK-MEL-5) | GI50 (COLO 205) | GI50 (K562) | GI50 (HOP-62) | GI50 (MCF7) | GI50 (NCI-H460) | GI50 (U-251) | GI50 (BT-549) | GI50 (OVCAR-8) | GI50 (NCI-H23) | GI50 (LOX IMVI) | GI50 (HCC 2998) | GI50 (RPMI-8226) | GI50 (RXF 393) | GI50 (DU-145) | GI50 (Hs-578T) | GI50 (UACC-62) | GI50 (NCI-H522) |
| --- | --- | --- | --- | --- | --- | --- | --- | --- | --- | --- | --- | --- | --- | --- | --- | --- | --- | --- | --- | --- |
| O=c1cc(NNCc2ccccc2)[nH]c(=O)[nH]1 | > 10 µM (inactive) | > 100 µM (inactive) | > 100 µM (inactive) | > 100 µM (inactive) | > 100 µM (inactive) | > 100 µM (inactive) | > 100 µM (inactive) | > 100 µM (inactive) | > 100 µM (inactive) | > 100 µM (inactive) | > 100 µM (inactive) | > 100 µM (inactive) | > 100 µM (inactive) | > 100 µM (inactive) | > 100 µM (inactive) | > 100 µM (inactive) | > 100 µM (inactive) | 58.1 µM (inactive) |  |  |
| CCOP(=O)(OCC)C(C)(C)OC(=O)NC(F)(F)F | > 100 µM (inactive) | > 100 µM (inactive) | > 100 µM (inactive) | > 100 µM (inactive) | > 100 µM (inactive) | > 100 µM (inactive) | > 100 µM (inactive) | > 100 µM (inactive) | > 100 µM (inactive) | > 100 µM (inactive) | > 100 µM (inactive) | > 100 µM (inactive) | > 100 µM (inactive) | > 100 µM (inactive) | > 100 µM (inactive) | > 100 µM (inactive) | > 100 µM (inactive) | > 100 µM (inactive) | > 100 µM (inactive) |  |
| COc1ccc(C2Oc3c(cccc3OC)C=C2[N+](=O)[O-])cc1 (stereo not given) | 1.28 µM (inactive) | 0.743 µM (active) | 1.51 µM (inactive) | 2.51 µM (inactive) | 0.668 µM (active) | 2.49 µM (inactive) | 2.18 µM (inactive) | 1.81 µM (inactive) | 1.86 µM (inactive) | 1.36 µM (inactive) | 2.49 µM (inactive) | 3.08 µM (inactive) | 1.2 µM (inactive) |  | 2.01 µM (inactive) | 1.4 µM (inactive) | 4.38 µM (inactive) | 2.58 µM (inactive) | 1.91 µM (inactive) | 1.32 µM (inactive) |
| O=C(c1cc(Cl)cc(Cl)c1)N(C(=S)OC12CC3CC(CC(C3)C1)C2)c1ccccc1 | 28.1 µM (inactive) | 22.7 µM (inactive) | 28.3 µM (inactive) | 18.6 µM (inactive) |  | 42.7 µM (inactive) | 30.1 µM (inactive) | 35.3 µM (inactive) | 33 µM (inactive) | 50.2 µM (inactive) | 41.7 µM (inactive) | 36.1 µM (inactive) |  | 33.8 µM (inactive) |  | 41.2 µM (inactive) | 75.2 µM (inactive) | 48.9 µM (inactive) | 32.6 µM (inactive) | 16 µM (inactive) |
| COc1cc2c(cc1C)NC(=O)/C2=C/c1cccnc1 | 12.5 µM (inactive) | 14 µM (inactive) | 11 µM (inactive) | 15.6 µM (inactive) | 5.31 µM (inactive) | 11.7 µM (inactive) | 5.74 µM (inactive) | 9.02 µM (inactive) | 9.55 µM (inactive) | 22.6 µM (inactive) | 14.6 µM (inactive) | 9.86 µM (inactive) |  | 2.34 µM (inactive) |  | 7.8 µM (inactive) | 12.3 µM (inactive) | 27.4 µM (inactive) |  | 13 µM (inactive) |
| Fc1ccc(C2NC(=S)NC3=C2CCOc2c3ccc3ccccc23)cc1 (stereo not given) | 4.85 µM (inactive) | 27.7 µM (inactive) | 11.3 µM (inactive) | 6.67 µM (inactive) | 3.39 µM (inactive) | 64.9 µM (inactive) | 15.7 µM (inactive) | 30.7 µM (inactive) |  | 58.1 µM (inactive) | > 100 µM (inactive) | 24.4 µM (inactive) |  | 22.6 µM (inactive) | 19.8 µM (inactive) | 14.8 µM (inactive) | > 100 µM (inactive) | 42.1 µM (inactive) |  | 35 µM (inactive) |
| CCOC(=O)C1(C(=O)OCC)OC(C)=NC1(C(=O)OC)C(=O)OC | > 100 µM (inactive) | > 100 µM (inactive) | > 53.7 µM (inactive) | > 100 µM (inactive) | > 100 µM (inactive) | > 100 µM (inactive) | > 61.5 µM (inactive) | > 100 µM (inactive) | > 100 µM (inactive) | > 31.6 µM (inactive) | > 100 µM (inactive) | > 100 µM (inactive) | > 100 µM (inactive) | > 100 µM (inactive) |  | > 100 µM (inactive) | > 100 µM (inactive) | > 100 µM (inactive) | > 100 µM (inactive) |  |
| Cc1ccc2c(c1C)C(=O)C1(C2)Cc2ccc3c(c2C1=O)CCC3 (stereo not given) | > 100 µM (inactive) | 2.03 µM (inactive) | > 100 µM (inactive) | > 100 µM (inactive) | > 100 µM (inactive) |  | > 100 µM (inactive) | > 100 µM (inactive) | > 100 µM (inactive) | > 100 µM (inactive) | > 100 µM (inactive) | > 100 µM (inactive) |  | > 100 µM (inactive) | > 100 µM (inactive) | 41.8 µM (inactive) | > 100 µM (inactive) | > 100 µM (inactive) | > 100 µM (inactive) | > 100 µM (inactive) |
| C#CCCOC(=O)c1ccccc1OC(C)=O | > 100 µM (inactive) | > 100 µM (inactive) | > 100 µM (inactive) | > 100 µM (inactive) | > 100 µM (inactive) | 70.3 µM (inactive) | > 100 µM (inactive) | > 100 µM (inactive) | > 100 µM (inactive) | > 100 µM (inactive) | > 100 µM (inactive) | > 100 µM (inactive) | > 100 µM (inactive) |  | > 100 µM (inactive) | > 100 µM (inactive) | > 100 µM (inactive) | > 100 µM (inactive) | > 100 µM (inactive) | 63.7 µM (inactive) |
| O=C(/C=C/c1ccc(O)cc1)c1cc(-c2cc(CCC(=O)c3ccc(O)cc3O)ccc2O)c(O)cc1O | 19.8 µM (inactive) | 41.6 µM (inactive) | 25.2 µM (inactive) | 11.4 µM (inactive) | 17.7 µM (inactive) | 27.4 µM (inactive) | 28.1 µM (inactive) | 23.8 µM (inactive) | 17.5 µM (inactive) | 36.1 µM (inactive) | 25.5 µM (inactive) | 35.9 µM (inactive) | 19.5 µM (inactive) |  | 16.3 µM (inactive) | 41.5 µM (inactive) | 32.4 µM (inactive) | 23.7 µM (inactive) | 22.8 µM (inactive) | 22.3 µM (inactive) |
| CC(C)CC(N)C(=O)O (stereo not given) | > 100 µM (inactive) | > 100 µM (inactive) | > 100 µM (inactive) | > 100 µM (inactive) | > 100 µM (inactive) | > 100 µM (inactive) | > 100 µM (inactive) | > 100 µM (inactive) | > 100 µM (inactive) | > 100 µM (inactive) | > 100 µM (inactive) | > 100 µM (inactive) | > 100 µM (inactive) |  | > 100 µM (inactive) | > 100 µM (inactive) | > 100 µM (inactive) | > 100 µM (inactive) | > 100 µM (inactive) | > 100 µM (inactive) |
